Experiments:
MAT B III tumors = assay: Histological evaluation of apoptosis (TUNEL), rat model; format: in vivo, rats; conditions: 5 mg/kg, IV
Description: The rat MAT B III and the mouse 4T1 models were used in the histological studies. Animals treated with DOX-NC were exposed to the RF field 24 hours post-injection. After 24 hours from the application of the RF field, the animals were anesthetized with an IP injection of ketamine/xylazine and transcardially perfused with heparinized PBS followed by 4% paraformaldehyde in PBS. Controls included animals treated with DOX-NC (no RF), 35-nm liposomal DOX (with RF), 100-nm liposomal DOX (with RF), free DOX, RF alone and saline. The tumors were explanted and post-fixed overnight in 4% paraformaldehyde in PBS. The fixed tumors were soaked in 30% sucrose (w/v) in PBS at 4° C. for cryosectioning. Serial sections of 12 μm thickness were collected using a cryostat (Leica CM 300).
To visualize the tumor microvasculature, the tissue slices were immunohistochemically stained for the specific endothelial antigen CD31 (BD Biosciences, Pharmingen). The tissues were also stained with the nuclear stain DAPI. […] Direct fluorescence (red) imaging of tumor sections were performed for imaging DOX. Apoptosis was detected using a TUNEL assay (Promega). […] The total number of cells was counted based on the nuclear stain (DAPI) in multiple histological sections per tumor (minimum 20), whereas apoptotic cells were quantified based on TUNEL-stained nuclei.

[1] = system: 13762 MAT B III tumor model; assay: Tumor growth and survival study; format: in vivo, rats; conditions: single treatment 0.5 mg/kg DOX, without RF
Excerpt: The rat tumor model was established by a subcutaneous injection of 1×10^6 13762 MAT B III cells into the right flank of female Fisher rats. Mouse tumors were generated orthotopically in female BALB/c mice by injection of 0.5×10^6 4 T1 cells into the inguinalmammary fat pad. Once the appropriate tumor size was established (diameter ˜0.5 cm), the animals were used in the in vivo studies. Each cell line required different lag times to produce a tumor lesion of about 0.5 cm in size (5 and 8 days for the MAT B III and 4T1 model, respectively). Based on our prior experience, we chose this tumor size as the starting point of the animal studies, since the primary tumor mass is sufficiently large to present angiogenic, necrotic and invasive areas, and therefore may be more informative and relevant to human disease.
Once the appropriate tumor sizes were established (diameter ˜0.5 cm), the rat tumor model was IV injected with DOX-NC at a dose of 0.5 mg/kg DOX. After 24 hours from injection, animals were exposed to the RF field operated as described previously. Following the same dose and schedule, control groups included animals treated with DOX-NC (but no RF), only RF, liposomal DOX, liposomal DOX with RF, free DOX, and saline. […] The tumor growth was monitored every day using caliper measurements. […] Time of death was determined to be the following day.

COc1cccc2c1C(=O)c1c(O)c3c(c(O)c1C2=O)C[C@@](O)(C(=O)CO)C[C@@H]3O[C@H]1C[C@H](N)[C@H](O)[C@H](C)O1 [free DOX, doxorubicin]
apoptotic cells in tumor (visual inspection) (MAT B III tumors): substantial number of apoptotic cells | tumor growth [1]: failed to produce any therapeutic benefits

From patent US11065202B2, “Multi-component nanochains” (CASE WESTERN RESERVE UNIVERSITY, priority 2011, dated 2021)
